Results reported in ChEMBL document CHEMBL4808169, “Discovery of Potent and Fast-Acting Antimalarial Bis-1,2,4-triazines” (J Med Chem, 2021).
Calls of active or inactive are those of the source. The calls are words filed in the database; no cut-off is given here.

Key:
[1] = Drug metabolism in rat hepatocytes assessed as oxygenated metabolite M+16(1) formation by LC-MS/MS(CID) analysis; assay type: ADME, cell-based, Hepatocyte
[2] = AUC (0 to infinity) in Swiss mouse plasma at 2.7 mg/kg, iv measured up to 24 hrs; assay type: ADME, organism-based; set-up: route intravenous, dose 2.7 mg/kg, time <=24
[3] = AUC (0 to infinity) in Swiss mouse plasma at 27 mg/kg, po measured up to 24 hrs by LC-MS analysis
[4] = Clearance in ABT-treated Sprague-Dawley rat blood at 3 mg/kg, iv by LC-MS analysis; assay type: ADME, organism-based
[5] = Drug metabolism in human hepatocytes assessed as oxygenated metabolite M+16(1) formation by LC-MS/MS(CID) analysis; assay type: ADME, cell-based, Hepatocyte
[6] = Intrinsic clearance in rat hepatocytes assessed per million cells by UPLC-MS analysis; assay type: ADME, cell-based, Hepatocyte; conditions: read-out: CLH
[7] = Intrinsic clearance in human hepatocytes assessed per million cells by UPLC-MS analysis; assay type: ADME, cell-based, Hepatocyte; conditions: read-out: CLH
[8] = Apparent half life in Sprague-Dawley rat at 3 mg/kg administered as iv infusion for 10 mins measured up to 24 hrs by LC-MS analysis; assay type: ADME, organism-based; conditions: in vivo
[9] = Kinetic solubility of compound at pH 2 by nephelometry; assay type: physicochemical; conditions: buffer, read-out: Kinetic_solubility
[10] = Drug metabolism in mouse hepatocytes assessed as N-methyl-2-(3'-propoxy-5,5'-bi(1,2,4-triazin)-3-yloxy)ethanamine formation by LC-MS/MS(CID) analysis; assay type: ADME, cell-based, Hepatocyte
[11] = AUC (0 to infinity) in Swiss mouse plasma at 2.8 mg/kg, po measured up to 24 hrs by LC-MS analysis
[12] = Apparent permeability across apical to basolateral side in human Caco2 cells measured over 120 mins by LC-MS analysis; assay type: ADME, cell-based; conditions: Caco-2
[13] = Intrinsic clearance in mouse hepatocytes assessed per million cells by UPLC-MS analysis; assay type: ADME, cell-based, Hepatocyte; conditions: read-out: CLH
[14] = Drug metabolism in mouse liver microsomes assessed as 3'-propoxy-5,5'-bi(1,2,4-triazin)-3-ol formation by LC-MS/MS(CID) analysis; assay type: ADME, Microsome
Plasmodium berghei = assay: Antiplasmodial activity against Plasmodium berghei ANKA infected in po dosed Swiss mouse administered at 2 hrs post infection and measured on day 4 by Peter's 4-day test; assay type: functional
[15] = Drug excretion in Sprague-Dawley rat urine 3 mg/kg, iv measured up to 24 hrs by LC-MS analysis; assay type: ADME, organism-based; conditions: read-out: Drug excretion
[16] = Toxicity in Swiss mouse assessed as loss of mobility at 32 mg/kg/day administered for 4 days; assay type: organism-based; conditions: in vivo, 96 h, time 4 day
[17] = Drug metabolism in rat hepatocytes assessed as oxygenated metabolite M+16(2) formation by LC-MS/MS(CID) analysis; assay type: ADME, cell-based, Hepatocyte
[18] = Drug metabolism in rat liver microsomes assessed as N-methyl-2-(3'-propoxy-5,5'-bi(1,2,4-triazin)-3-yloxy)ethanamine formation by LC-MS/MS(CID) analysis; assay type: ADME, Microsome
Plasmodium falciparum [19] = assay: Antiplasmodial activity against Plasmodium falciparum 3D70087/N9 infected in NOD-SCID 1L2Rgamma mouse assessed as reduction in parasitemia at 50 mg/kg, po administered for 4 days starting from day 3 post infection by Peter's 4-day test; assay type: functional, organism-based
[20] = Metabolic stability of compound in Sprague-Dawley rat blood assessed as parent compound loss measured over 4 hrs by LC-MS analysis; assay type: ADME, tissue-based; conditions: whole blood, read-out: Drug degradation
[21] = Drug metabolism in Sprague-Dawley rat urine assessed as oxygenated metabolite N-methyl-2-(3'-propoxy-5,5'-bi(1,2,4-triazin)-3-yloxy)ethanamine oxide formation at 3 mg/kg, iv by high-resolution mass spectrometry; assay type: ADME, organism-based; conditions: in vivo
[22] = Drug recovery in bile cannulated Sprague-Dawley rat bile at 3 mg/kg, iv measured up to 4 hrs by LC-MS analysis; assay type: ADME, organism-based; conditions: read-out: Drug recovery
[23] = Drug metabolism in rat liver microsomes assessed as oxygenated metabolite M+16(2) formation by LC-MS/MS(CID) analysis; assay type: ADME, Microsome
[24] = Drug metabolism in Sprague-Dawley rat urine assessed as oxygenated metabolite M+16(2) formation at 3 mg/kg, iv by high-resolution mass spectrometry; assay type: ADME, organism-based; conditions: in vivo
[25] = Apparent oral availability in Sprague-Dawley rat at 10 mg/kg measured up to 24 hrs by LC-MS analysis; assay type: ADME, organism-based; conditions: in vivo, read-out: Fapp
[26] = Half life in human liver microsomes in presence of NADPH by UPLC-MS analysis; assay type: ADME, Microsome
[27] = Cmax in Swiss mouse plasma at 27 mg/kg, po measured up to 24 hrs by LC-MS analysis; assay type: ADME, organism-based; set-up: route oral, dose 27 mg/kg, time <=24
Cytochrome P450 1A2 = target: T1, Cytochrome P450 1A2 (Homo sapiens, UniProt P05177); assay: Inhibition of CYP1A2 in human liver microsomes assessed as reduction in […] activity by . high-pressure liquid chromatography-tandem mass spectrometry; assay type: ADME
T1 sequence (P05177 whole entry): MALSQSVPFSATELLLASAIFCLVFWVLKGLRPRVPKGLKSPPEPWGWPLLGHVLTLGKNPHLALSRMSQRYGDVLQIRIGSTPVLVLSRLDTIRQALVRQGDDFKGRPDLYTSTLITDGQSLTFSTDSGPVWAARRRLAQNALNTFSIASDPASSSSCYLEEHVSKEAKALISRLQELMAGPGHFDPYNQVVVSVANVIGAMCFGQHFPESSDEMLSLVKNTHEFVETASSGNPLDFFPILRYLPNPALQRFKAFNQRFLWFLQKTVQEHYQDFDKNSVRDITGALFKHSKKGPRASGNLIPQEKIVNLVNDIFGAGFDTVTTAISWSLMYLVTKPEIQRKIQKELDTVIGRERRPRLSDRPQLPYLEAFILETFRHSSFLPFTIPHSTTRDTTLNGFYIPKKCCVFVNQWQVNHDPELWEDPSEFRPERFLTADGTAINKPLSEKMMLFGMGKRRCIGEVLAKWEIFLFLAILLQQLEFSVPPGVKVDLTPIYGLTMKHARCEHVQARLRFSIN

[28] = Drug concentration in blood of NOD-SCID 1L2Rgamma mouse infected with Plasmodium falciparum 3D70087/N9 at 50 mg/kg, po measured after 6 hrs by LC-MS/MS analysis; assay type: ADME, organism-based; conditions: read-out: Drug uptake
[29] = Apparent half life in Swiss mouse at 2.7 mg/kg, iv measured up to 24 hrs by LC-MS analysis; assay type: ADME, organism-based; conditions: in vivo, read-out: t1/2(app) (converted)
Cytochrome P450 3A4 = Cytochrome P450 3A4 (Homo sapiens, UniProt P08684); assay: Inhibition of CYP3A4 in human liver microsomes assessed as reduction in testosterone 6beta-hydroxylation activity by high-pressure liquid chromatography-tandem mass spectrometry; assay type: ADME
Cytochrome P450 3A4, sequence (P08684 whole entry): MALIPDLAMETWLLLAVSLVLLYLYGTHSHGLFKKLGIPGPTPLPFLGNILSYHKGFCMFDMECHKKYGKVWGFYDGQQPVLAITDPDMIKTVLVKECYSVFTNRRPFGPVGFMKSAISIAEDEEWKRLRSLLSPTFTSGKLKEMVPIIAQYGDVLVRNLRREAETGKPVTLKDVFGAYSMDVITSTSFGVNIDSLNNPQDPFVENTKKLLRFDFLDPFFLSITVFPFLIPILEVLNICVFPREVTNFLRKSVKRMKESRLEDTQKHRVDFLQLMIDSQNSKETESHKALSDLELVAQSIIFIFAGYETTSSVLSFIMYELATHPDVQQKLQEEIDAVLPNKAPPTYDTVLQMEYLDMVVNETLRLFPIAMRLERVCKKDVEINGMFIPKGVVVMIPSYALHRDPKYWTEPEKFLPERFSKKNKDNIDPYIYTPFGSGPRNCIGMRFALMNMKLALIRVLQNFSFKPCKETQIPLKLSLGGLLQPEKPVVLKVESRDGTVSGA

[30] = Toxicity in Swiss mouse assessed as induction of poor posture at 32 mg/kg/day administered for 4 days; assay type: organism-based; conditions: in vivo, 96 h, time 4 day
[31] = Volume of distribution at steady state in Swiss mouse at 2.7 mg/kg, iv measured up to 24 hrs by LC-MS analysis; assay type: ADME, organism-based; conditions: in vivo, read-out: Vdss
Plasmodium falciparum [32] = assay: microbe, parasite or virus in culture; conditions: 3D7, 72 h
Description: Antimalarial activity against Plasmodium falciparum 3D7 infected in human red blood cells after 72 hrs by DAPI-staining based assay

- Drug metabolism [1]: Metabolite_Detected
- AUC(0-inf) [2]: 0.36 µM·h
- AUC(0-inf) [3]: 0.44 µM·h
- clearance [4]: 232 mL/min/kg
- Drug metabolism [5]: Metabolite_Detected
- hepatocyte CLint [6]: 10 µL/min/1e6 cells
- hepatocyte CLint [7]: 3.6 µL/min/1e6 cells
- half-life [8]: 23.4 min
- solubility kinetic [9]: > 100 µg/mL
- Drug metabolism [10]: Metabolite_Detected
- AUC(0-inf) [11]: 0.038 µM·h
- Papp A→B at 2 h [12]: 40 ×10⁻⁶ cm/s
- hepatocyte CLint [13]: 3.7 µL/min/1e6 cells
- Drug metabolism [14]: Metabolite_Detected
- dose excreted at 24 h [15]: < 3%
- Drug metabolism [17]: Metabolite_Detected
- Drug metabolism [18]: Metabolite_Detected
- metabolised at 4 h [20]: 15%
- Drug metabolism [21]: Metabolite_Detected
- dose excreted at 4 h [22]: 0.1%
- Drug metabolism [23]: Metabolite_Detected
- Drug metabolism [24]: Metabolite_Detected
- bioavailability [25]: 5%
- half-life [26]: 229 min
- Cmax [27]: 82 nM
- IC50 (Cytochrome P450 1A2): > 20 µM
- concentration at 6 h [28]: 150 ng/mL
- half-life [29]: 12 min
- IC50 (Cytochrome P450 3A4): > 20 µM
- Vd [31]: 3.4 L/kg
- IC50 (Plasmodium falciparum [32]): 0.031 µM
SMILES: CCCOc1nncc(-c2cnnc(OCCN(C)C)n2)n1
- ED50 (Plasmodium berghei): 1.85 mg/kg/day
- ED90 (Plasmodium berghei): 4.1 mg/kg/day
- Activity [16]: Non-Toxic
- Activity (Plasmodium falciparum [19]): Active
- Activity [30]: Non-Toxic
